# Test results: US9684238B2, “Fluorene-type compound, photopolymerization initiator comprising said fluorene-type compound, and photosensitive composition containing said photopolymerization initiator” (TOKYO OHKA KOGYO CO., LTD., priority 2012, dated 2017)
# Assays:
# [1] = Solubility in PGME, PGMEA and ethyl lactate; type: physicochemical; conditions: for Solubility Ethyl lactate: in 100 parts by weight of ethyl lactate; for Solubility Ethyl lactate / Solubility PGMEA / Solubility PGME: room temperature; for Solubility PGMEA: in 100 parts by weight of propylene glycol monomethyl ether acetate; for Solubility PGME: in 100 parts by weight of propylene glycol monomethyl ether; for solubility (in words): photopolymerization initiator containing the compound
# [2] = Decomposition point by thermal analysis (TG-DTA); type: physicochemical; conditions: 5.0 mg
# Method: The compounds 1, 2, 4, 6, 8, 9, 11, 12, 13, 15, 16, D-1, D-3, D-4, D-7, D-8, D-9, D-12, D-14, D-15, D-20, C-1, and C-2 were each subjected to measurement with a thermal analysis apparatus (TG-DTA) (manufactured by Rigaku Corporation, trade name: “Thermo Plus EVO TG 8120”) by using 5.0 mg thereof.
# [3] = Transmittance of transparent cured film; type: physicochemical; conditions: for Average transmittance (700 nm to 400 nm) Transparent cured film / Transmittance (400 nm) Transparent cured film: cured at exposure energy quantity 80 mJ/cm^2
# Outline: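 Films cured at 80 mJ/cm^2 exposure, otherwise prepared as in the earlier film evaluation. Spectrophotometer read in quartz cell, 1 cm path, giving transmittance (%) at 400 nm and average transmittance (%) over 400–700 nm.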
# [4] = Average transmittance of composition; type: physicochemical; conditions: photosensitive composition, quartz cell, optical path length 1 cm
# Method: The average transmittance (%) of each of the photosensitive resin compositions obtained in Examples 1 to 9, Examples 2-1 to 2-10, and Comparative Examples 1 and 2 in the range of from 400 nm to 700 nm was measured with a spectrophotometer (manufactured by Hitachi High-Technologies Corporation, trade name: “U-3900H”, quartz cell, optical path length; 1 cm).
# [5] = Absorption coefficient (absorbance of 0.001% solution in tetrahydrofuran); type: physicochemical; conditions: for Λ max (absorption maximum wavelength): 0.001% (wt/vol) in tetrahydrofuran, from 280 nm to 400 nm; for Absorption coefficient at 365 nm / Absorption coefficient at Λ max: 0.001% (wt/vol) solution in tetrahydrofuran
# Outline: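 Absorbance of a 0.001% (wt/vol) solution in tetrahydrofuran recorded by spectrophotometer. Absorption maximum wavelength (λmax) taken from the spectrum within 280–400 nm.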
# [6] = Evaluation 1: 20-μm pattern line width of transparent photosensitive composition; conditions: initiator 0.4 mmol, exposure energy quantity 30 mJ/cm^2
# [7] = as above; conditions: for 20-μm pattern line width: transparent composition, initiator 0.4 mmol
# [8] = Evaluation 3: 20-μm pattern line width of black photosensitive composition; conditions: black composition (carbon black, cardo resin), initiator 0.4 mmol
# Outline: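 Composition spin-coated on glass to 1.0 μm dry thickness, dried 90 °C for 10 min, exposed at 10–80 mJ/cm^2 via high-pressure mercury lamp through 20 μm negative mask, developed in 0.1 wt % TMAH, rinsed. Line width of remaining cured film measured; larger width means higher sensitivity.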
# [9] = photopolymerization initiator containing the compound
# [10] = exposure energy quantity 5 mJ/cm^2
# [11] = exposure energy quantity 10 mJ/cm^2
# [12] = exposure energy quantity 20 mJ/cm^2
# [13] = exposure energy quantity 40 mJ/cm^2
# [14] = exposure energy quantity 80 mJ/cm^2
SMILES,Solubility Ethyl lactate [1],Solubility PGMEA [1],Solubility PGME [1],solubility (in words) [1],Decomposition point [2] [°C],Average transmittance (700 nm to 400 nm) Transparent cured film [3] [%],Transmittance (400 nm) Transparent cured film [3] [%],Average transmittance (700 nm to 400 nm) Solution [4] [%],Λ max (absorption maximum wavelength) [5] [nm],Absorption coefficient at 365 nm [5] [mL/mg/cm],Absorption coefficient at Λ max [5] [mL/mg/cm],"20-μm pattern line width [7, 10]","20-μm pattern line width [7, 11]","20-μm pattern line width [7, 12]","20-μm pattern line width [7, 13]",20-μm pattern line width ([8]; 10 mJ/cm^2),20-μm pattern line width ([8]; 20 mJ/cm^2),20-μm pattern line width ([8]; 40 mJ/cm^2),20-μm pattern line width ([8]; 60 mJ/cm^2),20-μm pattern line width ([8]; 80 mJ/cm^2),further results
CCCC1(CCC)c2cc(C(=O)c3ccc([N+](=O)[O-])cc3)ccc2-c2ccc(C(=NOC(C)=O)C(C)C)cc21 (mixture of isomers) [Compound D-8],A (10 Parts by weight or more of the photopolymerization initiator is dissolved.),A (10 Parts by weight or more of the photopolymerization initiator is dissolved.),A (10 Parts by weight or more of the photopolymerization initiator is dissolved.),additionally excellent solubility,182.6,100.0,98.0,87.0,335.5,10.9,52.1,19.1,19.7,20.0,21.9,18.7,18.7,20.0,20.7,21.1,"transparency of photosensitive composition and formed product (in words) [3, 9]: additionally excellent transparency; 20-μm pattern line width [6]: 21.3"
CCCC1(CCC)c2cc(C(=O)c3ccc([N+](=O)[O-])cc3)ccc2-c2ccc(C(C)=NOC(C)=O)cc21 [Compound D-7],D (Less than 2 parts by weight of the photopolymerization initiator is dissolved.),D (Less than 2 parts by weight of the photopolymerization initiator is dissolved.),D (Less than 2 parts by weight of the photopolymerization initiator is dissolved.),–,250.3,99.3,96.1,86.0,341.5,21.9,62.9,19.3,20.2,20.8,22.6,–,–,–,–,–,20-μm pattern line width [6]: 21.4
CCCC1(CCC)c2cc(C(=O)/C(C)=N/OC(C)=O)ccc2-c2ccc(C(=O)c3ccc([N+](=O)[O-])cc3)cc21 [Compound D-9],C (An amount in the range of from 2 parts by weight or more to less than 5 parts by weight of the photopolymerization initiator is dissolved.),C (An amount in the range of from 2 parts by weight or more to less than 5 parts by weight of the photopolymerization initiator is dissolved.),D (Less than 2 parts by weight of the photopolymerization initiator is dissolved.),–,228.9,99.8,96.4,70.9,343.0,29.1,63.7,19.3,19.5,20.0,20.7,18.8,19.1,20.1,20.9,21.2,"20-μm pattern line width [7, 14]: 21.7"
CCCC1(CCC)c2cc(C(CCCCl)=NOC(C)=O)ccc2-c2ccc([N+](=O)[O-])cc21 [Compound D-12],B (An amount in the range of from 5 parts by weight or more to less than 10 parts by weight of the photopolymerization initiator is dissolved.),A (10 Parts by weight or more of the photopolymerization initiator is dissolved.),A (10 Parts by weight or more of the photopolymerization initiator is dissolved.),additionally excellent solubility,174.7,99.7,93.6,79.9,345.5,39.0,58.4,19.8,20.6,21.4,22.3,19.1,20.5,21.6,22.5,22.7,"sensitivity to the active energy ray (in words) [7, 9]: additionally high sensitivity to the active energy ray; 20-μm pattern line width [7, 14]: 23.3"
